3 compounds from article PMC6914780 (2019) can be followed below.

The subject of experiment [1] is SAM-VI WT (B. angulatum 59 metK, U1A loop, crystallization/ITC construct) (RNA, riboswitch) GGCAUUGUGCCUCGCAUUGCACUCCGCGGGGCGAUAAGUCCUGAAAAGGGAUGUC
In words: ITC. The settings on record: K+ 50 mM, Mg2+ 10 mM; 40 mM HEPES pH 7.0, 20 °C.

The subject of experiment [2] is SAM-VI U6C (RNA, riboswitch) GGCAUCGUGCCUCGCAUUGCACUCCGCGGGGCGAUAAGUCCUGAAAAGGGAUGUC
In words: ITC. The following applies: K+ 50 mM, Mg2+ 10 mM; 40 mM HEPES pH 7.0, 20 °C.

In experiment [3] the test system is SAM-VI G7C (RNA, riboswitch) GGCAUUCUGCCUCGCAUUGCACUCCGCGGGGCGAUAAGUCCUGAAAAGGGAUGUC
In words: ITC. The settings on record: K+ 50 mM, Mg2+ 10 mM; 40 mM HEPES pH 7.0, 20 °C; N.D.; 0.5-1 mM ligand in syringe.

In experiment [4] the test system is SAM-VI U8C (RNA, riboswitch) GGCAUUGCGCCUCGCAUUGCACUCCGCGGGGCGAUAAGUCCUGAAAAGGGAUGUC
In words: ITC. The settings on record: K+ 50 mM, Mg2+ 10 mM; 40 mM HEPES pH 7.0, 20 °C; N.D.; 0.5-1 mM ligand in syringe.

In experiment [5] the test system is SAM-VI U8G (RNA, riboswitch) GGCAUUGGGCCUCGCAUUGCACUCCGCGGGGCGAUAAGUCCUGAAAAGGGAUGUC
Description: ITC. The settings on record: K+ 50 mM, Mg2+ 10 mM; 40 mM HEPES pH 7.0, 20 °C; N.D.; 0.5-1 mM ligand in syringe.

Experiment [6] relates to SAM-VI U8A (RNA, riboswitch) GGCAUUGAGCCUCGCAUUGCACUCCGCGGGGCGAUAAGUCCUGAAAAGGGAUGUC
In words: ITC. The settings on record: K+ 50 mM, Mg2+ 10 mM; 40 mM HEPES pH 7.0, 20 °C; N.D.; 0.5-1 mM ligand in syringe.

Experiment [7] has as its system SAM-VI G33A (RNA, riboswitch) GGCAUUGUGCCUCGCAUUGCACUCCGCGGGGCAAUAAGUCCUGAAAAGGGAUGUC
In words: ITC. The following applies: K+ 50 mM, Mg2+ 10 mM; 40 mM HEPES pH 7.0, 20 °C; N.D.; 0.5-1 mM ligand in syringe.

The subject of experiment [8] is SAM-VI A34C (RNA, riboswitch) GGCAUUGUGCCUCGCAUUGCACUCCGCGGGGCGCUAAGUCCUGAAAAGGGAUGUC
Description: ITC. The settings on record: K+ 50 mM, Mg2+ 10 mM; 40 mM HEPES pH 7.0, 20 °C; N.D.; 0.5-1 mM ligand in syringe.

Experiment [9] deals with SAM-VI A34G (RNA, riboswitch) GGCAUUGUGCCUCGCAUUGCACUCCGCGGGGCGGUAAGUCCUGAAAAGGGAUGUC
In words: ITC. The settings on record: K+ 50 mM, Mg2+ 10 mM; 40 mM HEPES pH 7.0, 20 °C; N.D.; 0.5-1 mM ligand in syringe.

The subject of experiment [10] is SAM-VI A36C (RNA, riboswitch) GGCAUUGUGCCUCGCAUUGCACUCCGCGGGGCGAUCAGUCCUGAAAAGGGAUGUC
Description: ITC. The settings on record: K+ 50 mM, Mg2+ 10 mM; 40 mM HEPES pH 7.0, 20 °C; N.D.; 0.5-1 mM ligand in syringe.

In experiment [11] the test system is SAM-VI A37C (RNA, riboswitch) GGCAUUGUGCCUCGCAUUGCACUCCGCGGGGCGAUACGUCCUGAAAAGGGAUGUC
In words: ITC. The settings on record: K+ 50 mM, Mg2+ 10 mM; 40 mM HEPES pH 7.0, 20 °C; N.D.; 0.5-1 mM ligand in syringe.

Experiment [12] deals with SAM-VI G38C (RNA, riboswitch) GGCAUUGUGCCUCGCAUUGCACUCCGCGGGGCGAUAACUCCUGAAAAGGGAUGUC
Description: ITC. The following applies: K+ 50 mM, Mg2+ 10 mM; 40 mM HEPES pH 7.0, 20 °C; N.D.; 0.5-1 mM ligand in syringe.

Experiment [13] has as its system SAM-VI A36G/A37G/G38A (RNA, riboswitch) GGCAUUGUGCCUCGCAUUGCACUCCGCGGGGCGAUGGAUCCUGAAAAGGGAUGUC
In words: ITC. The settings on record: K+ 50 mM, Mg2+ 10 mM; 40 mM HEPES pH 7.0, 20 °C; N.D.; 0.5-1 mM ligand in syringe.

The subject of experiment [14] is metK 61 (U39Ap) (RNA, riboswitch, 2-aminopurine at U39 (paper numbering)) GCAAACGAAAACGUAUCAUUGUGCCUCGCUGGGGAGCGGGGCGAUAAGUCCGAAAGAGGGA
In words: 2-aminopurine fluorescence. The following applies: K+ 100 mM, Mg2+ 2 mM; 50 mM KMOPS pH 7.5, 20 °C; 0.5 µM RNA, 15 µM SAM; no fluorescence change.

Experiment [15] relates to metK 65 (U39Ap) (RNA, riboswitch, 2-aminopurine at U39 (paper numbering)) GCAAACGAAAACGUAUCAUUGUGCCUCGCUGGGGAGCGGGGCGAUAAGUCCGAAAGAGGGAUGAU
Description: 2-aminopurine fluorescence. The following applies: K+ 100 mM, Mg2+ 2 mM; 50 mM KMOPS pH 7.5, 20 °C; 0.5 µM RNA, 15 µM SAM; >3-fold fluorescence increase.

Experiment [16] relates to wt U39Ap SAM-VI (GAAA tetraloop) (RNA, riboswitch, 2-aminopurine at U39 (paper numbering)) GGCAUUGUGCCUCGAAAGGGGCGAUAAGUCCUGAAAAGGGAUGUC
In words: 2-aminopurine fluorescence titration. The following applies: K+ 100 mM, Mg2+ 2 mM; 50 mM KMOPS pH 7.5, 20 °C; apparent.

Experiment [17] concerns U6C U39Ap SAM-VI (RNA, riboswitch, 2-aminopurine at U39 (paper numbering)) GGCAUCGUGCCUCGAAAGGGGCGAUAAGUCCUGAAAAGGGAUGUC
In words: 2-aminopurine fluorescence titration. The following applies: K+ 100 mM, Mg2+ 2 mM; 50 mM KMOPS pH 7.5, 20 °C; apparent.

In experiment [18] the test system is wt U39Ap SAM-VI (GAAA tetraloop) (RNA, riboswitch, 2-aminopurine at U39 (paper numbering)) GGCAUUGUGCCUCGAAAGGGGCGAUAAGUCCUGAAAAGGGAUGUC
Description: stopped-flow 2-aminopurine fluorescence. The settings on record: K+ 100 mM, Mg2+ 2 mM; 50 mM KMOPS pH 7.5, 20 °C; association rate constant.

In experiment [19] the test system is U6C U39Ap SAM-VI (RNA, riboswitch, 2-aminopurine at U39 (paper numbering)) GGCAUCGUGCCUCGAAAGGGGCGAUAAGUCCUGAAAAGGGAUGUC
Description: stopped-flow 2-aminopurine fluorescence. The settings on record: K+ 100 mM, Mg2+ 2 mM; 50 mM KMOPS pH 7.5, 20 °C; association rate constant.

For the compound `C[S+](CC[C@H](N)C(=O)O)C[C@H]1O[C@@H](n2cnc3c(N)ncnc32)[C@H](O)[C@@H]1O` (stereo partly drawn), the Kd amounted to 330 ± 60 nM in experiment [1], 460 ± 20 nM in [2], 2040 ± 110 nM in [16] and 2310 ± 60 nM in experiment [17]. For the same compound, the binding entry in experiment [3], in [4], in [5], in experiment [6], in experiment [7] and in experiment [8] was “no” throughout. Also, the binding entry in experiment [9], in experiment [10], in [11], in experiment [12], in experiment [13] and in [14] was “no” in each case. In experiment [15], the binding entry is on record as “yes”. The results for the kon in experiment [18] and in experiment [19] were 24,580 ± 689 M^-1 s^-1 and 62,550 ± 1900 M^-1 s^-1, respectively.
Consider `Nc1ncnc2c1ncn2[C@@H]1O[C@H](CN(CCO)CC[C@H](N)C(=O)O)[C@@H](O)[C@H]1O`, for which the Kd in experiment [1] stood at 4400 ± 500 nM; in [2], 1700 ± 300 nM. The kon was 17,240 ± 1140 M^-1 s^-1 in [18] and 4230 ± 462 M⁻¹ s⁻¹ in [19].
The like results for `Nc1ncnc2c1ncn2[C@@H]1O[C@H](CSCC[C@H](N)C(=O)O)[C@@H](O)[C@H]1O` were, in that order, 10900 ± 1300 nM, 2300 ± 100 nM, 5500 ± 266 M⁻¹ s⁻¹ and 1460 ± 179 M⁻¹ s⁻¹.

Usually kon stands for the second-order rate constant of association. A low value points to slower complex formation.
